These results are taken from PMC7529893, “Structural basis for substrate recognition and chemical inhibition of oncogenic MAGE ubiquitin ligases” (Nature Communications, 2020).

Data set [1] addresses T1, GST-MAGE-A11 MHD (Homo sapiens, UniProt P43364).
T1 construct: GST-MAGE-A11 MHD (human MAGE-A11 MHD amino acid 218-429); made in house; host or cells: E. coli BL21(DE3)
T1 sequence (P43364 218-429): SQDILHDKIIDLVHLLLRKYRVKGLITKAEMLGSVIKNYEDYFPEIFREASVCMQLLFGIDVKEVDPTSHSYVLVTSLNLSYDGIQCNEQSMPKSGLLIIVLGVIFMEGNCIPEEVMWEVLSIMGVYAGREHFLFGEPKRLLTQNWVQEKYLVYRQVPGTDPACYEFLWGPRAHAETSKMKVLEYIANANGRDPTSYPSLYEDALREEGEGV
As to the kind of experiment: TR-FRET competition assay of PCF11 peptides against GST-MAGE-A11 MHD / FAM-PCF11_4. The following applies: Fig. 1c, panel of eight PCF11 peptides; read-out: IC50, binding of PCF11 peptide to GST-MAGE-A11 by TR-FRET. On the procedure:
The TR-FRET assay buffer with a formula of 50 mM Tris pH 7.5, 20 mM MgCl2, 0.1 mg/ml BSA and 1 mM DTT was freshly prepared before each experiment. All TR-FRET assays were performed in black 384-well plates with 20 µl/well assay volume in the TR-FRET assay buffer at room temperature (~25 °C). All peptides or compounds were solubilized in DMSO. To test the competitive activity of peptides or compounds against the interaction between GST-MAGE-A11 MHD and FAM-PCF11_4 peptide, 10 µl/well peptide or compound at specified concentration was dispensed into a black 384-well low volume plate, followed by 5 µl/well FAM-PCF11_4 (800 nM), 5 µl/well Tb-anti-GST (20 nM), and GST-MAGE-A11 MHD (20 nM). The assay components in each well was then mixed by shaking the plate on an IKA MTS 2/4 digital microtiter plate shaker (IKA Works; Wilmington, NC, USA) for 1 min. The plate was further centrifuged in an Eppendorf 5810 centrifuge with an A-4-62 swing-bucket rotor (Eppendorf AG, Hamburg, Germany) at 201 g for 30 s. The plate was then incubated for 90 min with a lid to avoid light exposure to the assay components. After incubation, the fluorescent emission signals at 520 nm and 490 nm channels of individual wells were measured with a PHERAstar FS plate reader (BMG Labtech; Durham, NC, USA) by using a 340 nm excitation filter, 100 µs delay time, and 200 µs integration time. The TR-FRET fluorescence emission ratio (TR-FRET signal) for each well was presented as 10,000 × 520 nm/490 nm, which was used directly for curve fitting, or further converted to %Inhibition based on the respective positive and negative controls. The graphic software GraphPad Prism 4.81 (GraphPad Software; La Jolla, CA, USA) was used to generate curves and derive IC50 values of tested peptides or compounds, if applicable.
TR-FRET inhibitory activity characterization of a panel of PCF11 peptides against the interaction between GST-MAGE-A11 MHD and FAM-PCF11_4 was performed as follows. In a 20-µl/well assay volume, dilutions of PCF11_1 to PCF11_8 peptides (concentrations ranged from 3.1 nM to 100 µM for peptides PCF11_4, PCF11_5, PCF11_6 and PCF11_8 in a 1-to-2 dilution pattern for 16 concentration levels, and ranged from 48.9 nM to 100 µM for peptides of PCF11_1, PCF11_2, PCF11_3, and PCF11_7 in a 1-to-2 dilution pattern for 12 concentration levels), 200 nM FAM-PCF11_4, 5 nM Tb-anti-GST and 5 nM GST-MAGE-A11 were mixed together and incubated for 90 min before the TR-FRET signal for each well was measured. The final DMSO concentration was 1.1% (v/v). […] The signal of each peptide-treated well (Signalpeptide) was normalized to the positive and negative controls to derive %inhibition of the peptide at a specific concentration with Eq. (1). Where applicable, the %Inhibition data were fit into a Sigmoidal dose response equation to derive IC50 values.1 %Inhibition=100%−100%×(Signalpeptide−SignalDMSOwithoutGST-MAGEA11)/SignalDMSO−SignalDMSOwithoutGST-MAGEA11.

A short description of data set [2]: High throughput Caco-2 permeability. The format is in vitro ADME. Particulars: human, Caco-2, pH 7.4, 10 µmol/l, 2 h; for Papp A→B at 2 h, 10 µmol/l: apical to basolateral; for Papp B→A at 2 h, 10 µmol/l: basolateral to apical. On the procedure:
(§1) High throughput Caco-2 permeability was performed in the TranswellR 0.4 µm polycarbonate membrane 96-well system with modified methods. Caco-2 cells were maintained at 37 °C in a humidified incubator with an atmosphere of 5% CO2. The cells were cultured in 75 cm^2 flasks with Dulbecco’s Modified Eagle’s Medium (DMEM) containing 10% (v/v) FBS, 1% (v/v) non-essential amino acids (NEAA), 100 units/ml of penicillin, and 100 µg/ml of streptomycin. The Caco-2 cells were seeded onto inserts at a density of 2 × 10^4 cells/insert separately. The medium in the wells was exchanged each other day, and the trans epithelial electrical resistance (TEER) value was measured using an epithelial voltohm meter (Millipore, Billerica, Massachusetts). […] For transport experiments, each cultured monolayer on the 96-well plate was washed twice with a transport buffer (HBSS containing 25 mM HEPES, pH 7.4). The permeability assay was initiated by the addition of each compound solution (10 µmol/l) into inserts (apical side, A) or receivers (basolateral side, B). The Caco-2 cell monolayers were incubated for 2 h at 37 °C. Fractions were collected from receivers (if apical to basal permeability) or inserts (if basal to apical permeability), and concentrations were assessed by UPLC/MS (Waters; Milford, MA). All compounds were tested in triplicates. The A → B (or B → A) apparent permeability coefficients (Papp) of each compound were calculated using the equation, Papp = dQ/dt × 1/AC0, where dQ/dt equals the flux of a drug across the monolayer, A equals the total insert well surface area, and C0 is the initial concentration of substrate in the donor compartment. The efflux ratio was determined by dividing the Papp in the B-A direction by the Papp in the A-B direction.

Data set [3] deals with T2, MAGE-A11:PCF11 interaction (GST-MAGE-A11 MHD and FAM-PCF11_4) (Homo sapiens, UniProt P43364).
T2 construct: GST-MAGE-A11 MHD (human MAGE-A11 MHD amino acid 218-429); made in house; host or cells: E. coli BL21(DE3)
T2 sequence (P43364 218-429): T1 sequence (P43364 218-429)
As to the kind of experiment: TR-FRET dose response test of compounds for disruption of MAGE-A11:PCF11 binding. The following applies: Supplementary Data 4; read-out: TR-FRET, IC50. The method, boiled down:
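Competition of compounds against binding of FAM-PCF11_4 peptide to GST-MAGE-A11 MHD, detected with Tb-anti-GST, in 50 mM Tris pH 7.5, 20 mM MgCl2, 0.1 mg/ml BSA, 1 mM DTT. 90 min at ~25 °C; 520/490 nm emission ratio (340 nm excitation) fitted for IC50.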

The nature of data set [4]: Solubility assay (μSOL Evolution). Format: physicochemical. The following applies: 18 h at RT; for solubility at 18 h: citrate phosphate-buffered saline (isotonic) with 1% DMSO. On the procedure: Solubility assays were carried out on a Biomek FX lab automation workstation (Beckman Coulter, Inc., Fullerton, CA) using μSOL Evolution software (pION Inc., Woburn, MA). The detailed method is described as follows. 10 µl of 10 mM compound stock (in DMSO) was added to 190 μl 1-propanol to make a reference stock plate. In total, 5 µl from this reference stock plate were mixed with 70 µl 1-propanol and 75 µl citrate phosphate-buffered saline (PBS; isotonic) to make the reference plate, and the UV spectrum (250–500 nm) of the reference plate was read. In total, 6 µl of 10 mM test compound stock was added to 594 µl buffer in a 96-well storage plate and mixed. The storage plate was sealed and incubated at RT for 18 h. The suspension was then filtered through a 96-well filter plate (pION Inc., Woburn, MA). In all, 75 µl of filtrate was mixed with 75 µl 1-propanol to make the sample plate, and the UV spectrum of the sample plate was read. Calculations were carried out with μSOL Evolution software based on the area under the curve (AUC) of the UV spectrum of the sample and reference plates. All compounds were tested in triplicate.

The test system of data set [5] is Caco-2 cells. Put plainly: High throughput Caco-2 permeability. The format is in vitro ADME. The following applies: 10 µmol/l, 2 h; for Papp A→B: apical to basolateral; for Papp B→A: basolateral to apical. On the procedure: as §1

In brackets after ≈: the same amount, converted by molar mass. Peptide text beside a SMILES is read from it.

Consider `CC(C)C[C@H](NC(=O)[C@H](CC(C)C)NC(=O)[C@H](CCC(=O)O)NC(=O)[C@H](CCCNC(=N)N)NC(=O)[C@H](CCCCN)NC(=O)[C@H](CO)NC(=O)[C@H](C)NC(=O)[C@H](CC(C)C)NC(=O)[C@@H](NC(=O)[C@H](CC(C)C)NC(=O)[C@H](CCC(=O)O)NC(=O)[C@H](CCCCN)NC(=O)[C@@H]1CCCN1)[C@@H](C)O)C(=O)N[C@@H](CCC(N)=O)C(=O)N[C@@H](CCCCN)C(=O)O` [PCF11_1] (H-PKELTLASKRELLQK-OH; N-terminus assumed), for which the IC50 in data set [1] is > 50000 nM.

`CC[C@H](C)[C@H](NC(=O)[C@H](CCC(=O)O)NC(=O)CNC(=O)[C@H](CO)NC(=O)[C@H](C)NC(=O)[C@H](CC(C)C)NC(=O)[C@H](CCCNC(=N)N)NC(=O)[C@H](CCC(=O)O)NC(=O)[C@H](CO)NC(=O)[C@@H](NC(=O)[C@H](CCCCN)NC(=O)[C@H](CCC(N)=O)NC(=O)[C@H](CC(C)C)NC(=O)[C@@H](N)CC(C)C)[C@@H](C)O)C(=O)N[C@H](C(=O)O)[C@@H](C)O` [PCF11_2] (H-LLQKTSERLASGEIT-OH; N-terminus assumed): in data set [1], the IC50 is > 50000 nM.

In the case of `CC[C@H](C)[C@H](NC(=O)[C@H](CCC(N)=O)NC(=O)[C@H](Cc1c[nH]cn1)NC(=O)[C@@H](NC(=O)[C@@H](NC(=O)[C@@H](NC(=O)[C@H](CC(C)C)NC(=O)[C@H](Cc1ccccc1)NC(=O)[C@H](CC(=O)O)NC(=O)[C@H](CC(=O)O)NC(=O)[C@H](CCC(N)=O)NC(=O)[C@@H](NC(=O)[C@@H](NC(=O)[C@H](CCC(=O)O)NC(=O)CN)[C@@H](C)CC)[C@@H](C)O)C(C)C)C(C)C)C(C)C)C(=O)O` [PCF11_3] (H-GEITQDDFLVVVHQI-OH; N-terminus assumed), the IC50 in data set [1] is > 50000 nM.

In data set [2], `FC(F)(F)c1cc(-c2ccc3c(NCCCNCc4ccco4)ccnc3c2)cc(C(F)(F)F)c1` [SJ000311270-01, FC(F)(F)c1cc(cc(c1)C(F)(F)F)c2ccc3c(NCCCNCc4occc4)ccnc3c2] returned a Papp A→B at 2 h, 10 µmol/l of 0.326 ×10⁻⁶ cm/s and a Papp B→A at 2 h, 10 µmol/l of 0.079 ×10⁻⁶ cm/s. The IC50 in data set [3] was 580 nM. Besides, the solubility at 18 h in data set [4] was 61.1 µM (≈ 30.1 µg/mL).

`CC(C)(C)c1ccc(-c2ccc3c(NCCCNCc4ccco4)ccnc3c2)cc1` [SJ000311286-01, CC(C)(C)c1ccc(cc1)c2ccc3c(NCCCNCc4occc4)ccnc3c2]: in data set [2], the Papp A→B at 2 h, 10 µmol/l amounted to 0.578 ×10⁻⁶ cm/s and the Papp B→A at 2 h, 10 µmol/l was 0.12 ×10⁻⁶ cm/s. For the same compound, the IC50 in data set [3] was found to be 1160 nM. Moreover, the solubility at 18 h in data set [4] worked out at 56.2 µM (≈ 23.2 µg/mL).

Regarding `FC(F)(F)c1ccc2c(NCCCNCc3ccc4c(c3)OCO4)ccnc2c1` [SJ000361106-02], in data set [5], the Papp A→B came to 47 ×10⁻⁶ cm/s and the Papp B→A was found to be 40 ×10⁻⁶ cm/s. Further, the “Solubility” value in data set [4] came out at 128.74 µM (≈ 51.9 µg/mL).

On to `FC(F)(F)c1ccc2c(NCCCNCc3ccco3)ccnc2c1` [SJ000361113-02], for which, in data set [5], the Papp A→B is 50.2 ×10⁻⁶ cm/s and the Papp B→A turned out to be 40.1 ×10⁻⁶ cm/s. The IC50 in data set [3] is > 70000 nM. The “Solubility” value in data set [4] is 119.10 µM (≈ 41.6 µg/mL).

In data set [5], `Clc1ccc2c(NCCCNCc3ccc4[nH]ccc4c3)ccnc2c1` [SJ000520909-03] had a Papp A→B of 19.6 ×10⁻⁶ cm/s and a Papp B→A of 21.3 ×10⁻⁶ cm/s. Further, in data set [3], the IC50 is 240 nM. For the same compound, the “Solubility” value in data set [4] stood at 59.80 µM (≈ 21.8 µg/mL).

In data set [5], `Brc1ccc2c(NCCCNCc3ccc4[nH]ccc4c3)ccnc2c1` [SJ001008065-01] gave a Papp A→B of 18.3 ×10⁻⁶ cm/s and a Papp B→A of 19.3 ×10⁻⁶ cm/s. In data set [3], the IC50 turned out to be 620 nM. The “Solubility” value in data set [4] is 57.14 µM (≈ 23.4 µg/mL).

On to `CC(C)(C)c1ccc(-c2ccc3c(NCCCNCc4ccc5[nH]ccc5c4)ccnc3c2)cc1` [SJ001008068-01], for which, in data set [5], the Papp A→B was determined as 0.368 ×10⁻⁶ cm/s and the Papp B→A was 1.54 ×10⁻⁶ cm/s. Besides, the IC50 in data set [3] was 130 nM. For the same compound, in data set [4], the “Solubility” value turned out to be 0.67 µM (≈ 0.31 µg/mL).

For the compound `FC(F)(F)c1cc(-c2ccc3c(NCCCNCc4ccc5[nH]ccc5c4)ccnc3c2)cc(C(F)(F)F)c1` [SJ001008069-01], in data set [5], the Papp A→B was 0.498 ×10⁻⁶ cm/s and the Papp B→A turned out to be 0.229 ×10⁻⁶ cm/s. The IC50 in data set [3] was found to be 200 nM. Besides, the “Solubility” value in data set [4] was found to be 0.12 µM (≈ 0.0651 µg/mL).

Take `C=CC(=O)N(CCCNc1ccnc2ccccc12)Cc1ccc2[nH]ccc2c1` [SJ001009807-01]: in data set [5], the Papp A→B came out at 2.73 ×10⁻⁶ cm/s and the Papp B→A came to 18.9 ×10⁻⁶ cm/s. In data set [3], the IC50 was determined as 3500 nM. For the same compound, the “Solubility” value in data set [4] is 34.77 µM (≈ 13.4 µg/mL).
